The source made the active and inactive calls. No cut-off for these calls is given here.

The subject of series [1] is Cell membrane. In words: Induction of cell membrane permeability in trypomastigote forms of Trypanosoma Cruzi Y at IC50 measured after 80 mins by SYSTOX Green assay. In kind it is subcellular.
The target of a further series is Cytochrome P450 2C9 (Homo sapiens, UniProt P11712). The series is described as follows: Inhibition of CYP2C9 (unknown origin). Type of series: ADME.
In series [2] the test system is Cell membrane. In words: Induction of plasma membrane depolarization in trypomastigote forms of Trypanosoma cruzi Y at IC50 measured after 2 hrs by DiSBAC2(3)-probe based assay.
In series [3] the test system is Trypanosoma cruzi. The series is described as follows: Induction of acidocalcisome alkalinization in trypomastigotes form of Trypanosoma cruzi Y assessed as upregulation of Ca2+ level at IC50 using acridine orange measured after 60 min by fluorescent based assay.
The target of another series is Cytochrome P450 2D6 (Homo sapiens, UniProt P10635). In words: Inhibition of CYP2D6 (unknown origin). Type of series: ADME.
Series [4] has as its system Cell membrane. The series is described as follows: Induction of cell membrane permeability in trypomastigote forms of Trypanosoma Cruzi Y at IC50 measured after 120 mins by SYSTOX Green assay. Type of series: subcellular.
The nature of series [5]: Cytotoxicity against mouse NCTC clone 929 cells assessed as reduction in cell viability after 48 hrs by MTT assay. In kind it is cell-based.
The next series deals with T1, Cytochrome P450 1A2 (Homo sapiens, UniProt P05177).
T1 sequence (P05177 whole entry): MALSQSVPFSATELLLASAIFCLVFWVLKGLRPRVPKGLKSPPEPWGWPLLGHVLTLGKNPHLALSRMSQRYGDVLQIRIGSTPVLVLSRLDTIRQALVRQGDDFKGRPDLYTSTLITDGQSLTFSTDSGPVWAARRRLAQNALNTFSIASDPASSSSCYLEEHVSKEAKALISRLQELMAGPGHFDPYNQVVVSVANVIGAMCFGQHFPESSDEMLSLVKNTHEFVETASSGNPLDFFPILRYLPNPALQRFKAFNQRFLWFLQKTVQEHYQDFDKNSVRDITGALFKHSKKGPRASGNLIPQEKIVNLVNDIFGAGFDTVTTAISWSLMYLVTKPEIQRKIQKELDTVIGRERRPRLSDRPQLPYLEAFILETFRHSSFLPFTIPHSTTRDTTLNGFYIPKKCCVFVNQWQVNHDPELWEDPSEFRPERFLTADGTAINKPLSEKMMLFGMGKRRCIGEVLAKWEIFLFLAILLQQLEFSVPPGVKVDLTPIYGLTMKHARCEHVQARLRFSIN
The series is described as follows: Inhibition of CYP1A2 (unknown origin). In kind it is ADME.

The subject of series [6] is Trypanosoma cruzi. In words: Induction of mitochondrial membrane depolarization in trypomastigote forms of Trypanosoma cruzi Y at IC50 measured after 2 hrs by JC-1 staining based flow cytometry. Type of series: functional, organism-based. (A flow cytometer gives signals particle by particle.)
The test system of series [7] is Trypanosoma cruzi. In words: Induction of ROS generation in trypomastigote forms of Trypanosoma cruzi Y assessed as effect on reactive oxygen species level at IC50 for 2 hrs by fluorimetric microplate reader method. In kind it is functional, organism-based.
For series [8], the system named is Trypanosoma cruzi. The series is described as follows: Antitrypanosomal activity against trypomastigote forms of Trypanosoma cruzi Y infected in LLC-MK2 cells assessed as parasite growth inhibition by resazurin assay. Type of series: functional, organism-based. (The colour change of resazurin is a common sign of viable cells or microbes.)
For a further series, the target named is Cytochrome P450 3A4 (Homo sapiens, UniProt P08684). The series is described as follows: Inhibition of CYP3A4 (unknown origin). Type of series: ADME.
Series [9] concerns Trypanosoma cruzi. In words: Antitrypanosomal activity against trypomastigote forms of Trypanosoma cruzi Y assessed as increase in ATP levels at IC50 incubated for 1 hrs by microplate reader method. In kind it is functional, organism-based.
The subject of series [10] is Trypanosoma cruzi. The series is described as follows: Antitrypanosomal activity against Trypanosoma cruzi Y assessed as increase in calcium level at IC50 measured upto 160 min by Fluo-4 AM probe-based spectrofluorimetric method. Type of series: functional, organism-based. Particulars: time min <=160.
A further series has as its target Cytochrome P450 2C19 (Homo sapiens, UniProt P33261). The series is described as follows: Inhibition of CYP2C19 (unknown origin). In kind it is ADME.
Series [11] can be described thus: Selectivity index, ratio of CC50 for cytotoxicity against mouse NCTC clone 929 cells to IC50 for trypomastigote forms of Trypanosoma cruzi Y infected in LLC-MK2 cells. In kind it is toxicity, cell-based. As to conditions: read-out: Ratio CC50/IC50.
The subject of series [12] is Trypanosoma cruzi. The series is described as follows: Antitrypanosomal activity against trypomastigote forms of Trypanosoma cruzi Y assessed as increase in ATP levels at IC50 incubated for 2 hrs by microplate reader method. Type of series: functional, organism-based.

Sequence of Cytochrome P450 2D6 (P10635 whole entry): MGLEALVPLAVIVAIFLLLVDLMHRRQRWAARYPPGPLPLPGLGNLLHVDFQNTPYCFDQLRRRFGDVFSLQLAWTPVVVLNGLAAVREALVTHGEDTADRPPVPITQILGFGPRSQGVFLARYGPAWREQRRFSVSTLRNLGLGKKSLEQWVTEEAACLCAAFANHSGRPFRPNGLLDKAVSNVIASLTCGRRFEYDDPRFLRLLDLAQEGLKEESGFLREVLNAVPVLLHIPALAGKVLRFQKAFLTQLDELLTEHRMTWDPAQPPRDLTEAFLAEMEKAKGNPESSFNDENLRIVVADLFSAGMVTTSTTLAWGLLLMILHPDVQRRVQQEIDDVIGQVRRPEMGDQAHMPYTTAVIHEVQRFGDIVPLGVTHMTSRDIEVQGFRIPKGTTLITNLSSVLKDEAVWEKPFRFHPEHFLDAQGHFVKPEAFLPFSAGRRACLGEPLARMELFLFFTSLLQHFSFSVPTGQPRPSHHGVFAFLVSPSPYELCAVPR
Sequence of Cytochrome P450 2C9 (P11712 whole entry): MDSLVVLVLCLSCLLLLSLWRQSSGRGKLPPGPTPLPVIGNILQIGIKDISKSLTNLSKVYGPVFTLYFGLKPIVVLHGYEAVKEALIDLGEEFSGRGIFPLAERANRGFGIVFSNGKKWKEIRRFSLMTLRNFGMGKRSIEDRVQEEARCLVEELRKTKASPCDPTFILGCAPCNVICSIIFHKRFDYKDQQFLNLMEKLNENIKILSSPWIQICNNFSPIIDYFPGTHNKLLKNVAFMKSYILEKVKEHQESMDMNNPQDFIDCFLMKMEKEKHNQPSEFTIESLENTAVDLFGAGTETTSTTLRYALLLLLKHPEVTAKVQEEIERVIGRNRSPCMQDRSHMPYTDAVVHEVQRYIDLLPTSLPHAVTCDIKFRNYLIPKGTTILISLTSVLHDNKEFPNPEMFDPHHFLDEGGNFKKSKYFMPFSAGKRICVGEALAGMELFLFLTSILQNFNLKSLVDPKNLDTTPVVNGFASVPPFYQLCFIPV
Sequence of Cytochrome P450 3A4 (P08684 whole entry): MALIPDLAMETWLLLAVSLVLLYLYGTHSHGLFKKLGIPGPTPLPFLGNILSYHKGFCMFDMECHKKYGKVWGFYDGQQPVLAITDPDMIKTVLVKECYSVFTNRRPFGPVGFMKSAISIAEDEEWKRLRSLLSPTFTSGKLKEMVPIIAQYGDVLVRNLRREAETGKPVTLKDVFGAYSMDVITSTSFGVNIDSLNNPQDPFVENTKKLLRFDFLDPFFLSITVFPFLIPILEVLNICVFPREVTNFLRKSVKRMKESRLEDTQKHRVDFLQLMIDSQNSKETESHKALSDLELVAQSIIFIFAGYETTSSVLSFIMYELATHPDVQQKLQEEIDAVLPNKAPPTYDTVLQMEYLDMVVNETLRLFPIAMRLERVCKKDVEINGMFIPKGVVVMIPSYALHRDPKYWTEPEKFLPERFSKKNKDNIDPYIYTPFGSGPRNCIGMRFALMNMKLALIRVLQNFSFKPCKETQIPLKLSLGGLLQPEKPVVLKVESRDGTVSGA
Sequence of Cytochrome P450 2C19 (P33261 whole entry): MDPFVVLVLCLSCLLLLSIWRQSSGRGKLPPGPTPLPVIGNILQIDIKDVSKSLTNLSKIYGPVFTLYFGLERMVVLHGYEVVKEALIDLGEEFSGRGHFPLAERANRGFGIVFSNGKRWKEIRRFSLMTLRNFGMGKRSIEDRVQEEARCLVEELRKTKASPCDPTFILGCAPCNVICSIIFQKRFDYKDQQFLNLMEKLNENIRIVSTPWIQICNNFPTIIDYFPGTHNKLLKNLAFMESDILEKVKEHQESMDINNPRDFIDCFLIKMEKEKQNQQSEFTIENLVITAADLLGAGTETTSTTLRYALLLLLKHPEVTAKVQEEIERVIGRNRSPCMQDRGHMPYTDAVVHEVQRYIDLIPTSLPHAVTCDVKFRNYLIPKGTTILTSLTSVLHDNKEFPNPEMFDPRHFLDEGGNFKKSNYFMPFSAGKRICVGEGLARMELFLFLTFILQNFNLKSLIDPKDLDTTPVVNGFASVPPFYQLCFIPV

In the case of `C=CCCCCCCCCCCCCC/C=C1/C[C@H](CO)OC1=O`, the result in the series on Cell membrane [1], with Cell membrane [2], with Trypanosoma cruzi [3], with Trypanosoma cruzi [6], in the series on Trypanosoma cruzi [9] and with Trypanosoma cruzi [10] was Active. Further, the “inhibition (INH)” value at Cytochrome P450 2C9, on Cytochrome P450 2D6, against Cytochrome P450 1A2, against Cytochrome P450 3A4 and against Cytochrome P450 2C19 was “Active” in each case. Also, the result with Cell membrane [4] and with Trypanosoma cruzi [7] was inactive. The CC50 at 48 h in series [5] is more than 200 µM. Moreover, the IC50 in the series on Trypanosoma cruzi [8] came to 13.1 µM. Further, the selectivity ratio in [11] was more than 15.3.
Regarding `CCCCCCCCCCCCCCC/C=C1/C[C@H](CO)OC1=O`, the “inhibition (INH)” value against Cytochrome P450 2C9, on Cytochrome P450 2D6, at Cytochrome P450 1A2, on Cytochrome P450 3A4 and against Cytochrome P450 2C19 was “Active” throughout. Further, the result with Cell membrane [2] was Active. Further, the CC50 at 48 h in series [5] was 71.2 µM. Further, the IC50 with Trypanosoma cruzi [8] is 4 µM. Further, the selectivity ratio in [11] was 17.8.
For the molecule `CCCCCCCCCCCCCCCCCCCCC/C=C1/C[C@H](CO)OC1=O`, the result in the series with Cell membrane [1], in the series on Cell membrane [2], in the series with Trypanosoma cruzi [3], in the series on Trypanosoma cruzi [6] and with Trypanosoma cruzi [10] was Active. Further, the “inhibition (INH)” value against Cytochrome P450 2C9, on Cytochrome P450 2D6, against Cytochrome P450 1A2, against Cytochrome P450 3A4 and against Cytochrome P450 2C19 was “Not Active” in each case. In addition, the result with Trypanosoma cruzi [12], with Cell membrane [4], in the series on Trypanosoma cruzi [7] and in the series with Trypanosoma cruzi [9] was inactive. Moreover, the CC50 at 48 h in [5] is more than 200 µM. The 50% inhibitory concentration (IC50) with Trypanosoma cruzi [8] was 2.1 µM. Further, the selectivity ratio in series [11] is more than 95.2.
Take `O=C(Cn1ccnc1[N+](=O)[O-])NCc1ccccc1` [BENZNIDAZOLE]: the CC50 at 48 h in [5] is more than 200 µM. Further, the IC50 with Trypanosoma cruzi [8] came to 16.4 µM. In addition, the selectivity ratio in series [11] is more than 12.2.

As a reminder, the CC50 is the concentration that lowers cell viability or growth by half. The IC50 is the point on the concentration scale where inhibition reaches its midpoint.

The values above are taken from ChEMBL document CHEMBL4825666, “Antitrypanosomal Lactones from Nectandra barbellata” (J Nat Prod, 2021).
